Laboratory results from US9862711B2, “Pyrazine derivatives as phosphatidylinositol 3-kinase inhibitors” (NOVARTIS AG, priority 2014, dated 2018).

How the values were obtained:
Format in all cases: biochemical
[1] = target: PI 3-kinase beta (Homo sapiens (Human), UniProt P42338); assay: Kinase Glo Luminescent Kinase Assay (Assay B); conditions: 1 μM ATP, read-out: Assay B PI3Kβ IC50
Description: (§1) Kinase Glo Luminescent Kinase Assay (Kglo) for PI 3-Kinase Alpha (A), Pb 3-Kinase Beta (B), Vps34 (C), PI 4-Kinase Beta (D)
(§2) The luminescence-based ATP detection reagent KinaseGlo was obtained from Promega, (Cat. No. V6714, Lot No. 236161) through Catalys, Wallisellen, Switzerland. L-alpha-phosphatidylinositol (PI, liver, bovine) was obtained from Avanti Polar Lipid (Cat. No. 840042C, Lot#LPI-274), Phosphatidylinositol-4,5-bisphosphate (PIP(4,5)2) was also obtained from Avanti Polar Lipid (Cat. No. 840046X). L-α-Phosphatidylserine (PS) was obtained from Avanti Polar Lipid (Cat. No. 840032C), n-Octylglucoside from Avanti Polar Lipid (Cat. No. 10634425001). Luminescence is a well established readout to determine ATP concentrations and can thus be used to follow the activity of many kinases regardless of their substrate. The Kinase Glo Luminescent Kinase Assay (Promega, Madison/WI, USA) is a homogeneous HTS method of measuring kinase activity by quantifying the amount of ATP remaining in solution following a kinase reaction.
(§3) 50 nL of compound dilutions were dispensed onto black 384-well low volume Non Binding Styrene (NBS) plates (Costar Cat. No. NBS#3676). L-α-phosphatidylinositol (PI), provided as 10 mg/ml solution in methanol, was transferred into a glass tube and dried under a nitrogen beam. It was then resuspended in 3% OctylGlucoside (1-O-n-octyl-beta-D-glucopyranoside) by vortexing and stored at 4° C. 5 μL of a mix of PI/OctylGlucoside with the PI 3-kinase alpha and PI 3-kinase beta subtypes, or Vps34 or PI 4-kinase beta were added. Kinase reactions were started by the addition of 5 μl of an ATP-mix containing in a final volume 10 μL 10 mM TRIS-HCl pH 7.5, 3 mM MgCl2, 50 mM NaCl, 0.05% CHAPS, 1 mM DTT and 1 μM ATP at room temperature. Reactions were stopped with 10 μl of KinaseGlo and plates were read 10 mins later in a Synergy2 reader using an integration time of 0.1 seconds per well. 2.5 μM of NVP-BGT226 (1-(3-(trifluoromethyl)-4-(piperazin-1-yl)phenyl)-8-(6-methoxypyridin-3-yl)-3-methyl-1H-imidazo[4,5-c]quinolin-2(3H)-one) was added to the assay plates to generate the 100% inhibition of the kinase reaction, and the 0% inhibition was given by the solvent vehicle (90% DMSO in water). (1-(3-(trifluoromethyl)-4-(piperazin-1-yl)phenyl)-8-(6-methoxypyridin-3-yl)-3-methyl-1H-imidazo[4,5-c]quinolin-2(3H)-one) was used as a reference compound and included in all assay plates in the form of 16 dilution points in duplicate.
(§4) IC50 values of the percentage inhibition of each compound at 8 concentrations (10, 3.0, 1.0, 0.3, 0.1, 0.030, 0.010 and 0.003 μM) n=2 were derived by fitting a sigmoidal dose-response curve to a plot of assay readout over inhibitor concentration as described. All fits were performed with the program XLfit4 (ID Business Solutions, Guildford, UK).

[2] = target: Vps34 (Homo sapiens (Human), UniProt Q8NEB9); assay: Kinase Glo Luminescent Kinase Assay (Assay C); conditions: 1 μM ATP
Sequence of Vps34 (Q8NEB9 whole entry, species assumed): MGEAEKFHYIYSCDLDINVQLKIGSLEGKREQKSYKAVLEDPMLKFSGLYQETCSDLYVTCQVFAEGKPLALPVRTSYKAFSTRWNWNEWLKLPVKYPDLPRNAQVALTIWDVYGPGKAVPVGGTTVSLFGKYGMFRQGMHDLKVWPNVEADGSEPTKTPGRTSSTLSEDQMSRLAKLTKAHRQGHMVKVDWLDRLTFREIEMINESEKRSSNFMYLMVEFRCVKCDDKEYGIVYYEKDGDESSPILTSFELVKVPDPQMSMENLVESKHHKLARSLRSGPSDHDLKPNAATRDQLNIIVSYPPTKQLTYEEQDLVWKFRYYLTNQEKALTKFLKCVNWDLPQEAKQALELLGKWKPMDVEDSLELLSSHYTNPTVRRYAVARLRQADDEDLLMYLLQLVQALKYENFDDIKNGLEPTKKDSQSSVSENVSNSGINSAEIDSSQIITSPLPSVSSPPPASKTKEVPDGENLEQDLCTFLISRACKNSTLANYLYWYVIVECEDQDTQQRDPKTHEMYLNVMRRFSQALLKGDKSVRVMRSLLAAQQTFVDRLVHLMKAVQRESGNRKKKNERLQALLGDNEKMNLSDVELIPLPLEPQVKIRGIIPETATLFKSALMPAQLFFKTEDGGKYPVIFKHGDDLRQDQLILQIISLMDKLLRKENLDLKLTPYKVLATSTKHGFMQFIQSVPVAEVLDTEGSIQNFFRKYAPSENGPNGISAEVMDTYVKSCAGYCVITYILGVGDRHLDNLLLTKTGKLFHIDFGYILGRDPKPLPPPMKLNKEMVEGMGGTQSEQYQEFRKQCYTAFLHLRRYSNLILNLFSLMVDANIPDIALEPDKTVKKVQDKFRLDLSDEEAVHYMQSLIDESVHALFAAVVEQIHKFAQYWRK
Description: as §1, §2, §3, §4

[3] = target: PI 4-kinase beta (Homo sapiens (Human), UniProt Q9UBF8); assay: Kinase Glo Luminescent Kinase Assay (Assay D); conditions: 1 μM ATP, read-out: Assay D PI4Kβ IC50
Sequence of PI 4-kinase beta (Q9UBF8 whole entry): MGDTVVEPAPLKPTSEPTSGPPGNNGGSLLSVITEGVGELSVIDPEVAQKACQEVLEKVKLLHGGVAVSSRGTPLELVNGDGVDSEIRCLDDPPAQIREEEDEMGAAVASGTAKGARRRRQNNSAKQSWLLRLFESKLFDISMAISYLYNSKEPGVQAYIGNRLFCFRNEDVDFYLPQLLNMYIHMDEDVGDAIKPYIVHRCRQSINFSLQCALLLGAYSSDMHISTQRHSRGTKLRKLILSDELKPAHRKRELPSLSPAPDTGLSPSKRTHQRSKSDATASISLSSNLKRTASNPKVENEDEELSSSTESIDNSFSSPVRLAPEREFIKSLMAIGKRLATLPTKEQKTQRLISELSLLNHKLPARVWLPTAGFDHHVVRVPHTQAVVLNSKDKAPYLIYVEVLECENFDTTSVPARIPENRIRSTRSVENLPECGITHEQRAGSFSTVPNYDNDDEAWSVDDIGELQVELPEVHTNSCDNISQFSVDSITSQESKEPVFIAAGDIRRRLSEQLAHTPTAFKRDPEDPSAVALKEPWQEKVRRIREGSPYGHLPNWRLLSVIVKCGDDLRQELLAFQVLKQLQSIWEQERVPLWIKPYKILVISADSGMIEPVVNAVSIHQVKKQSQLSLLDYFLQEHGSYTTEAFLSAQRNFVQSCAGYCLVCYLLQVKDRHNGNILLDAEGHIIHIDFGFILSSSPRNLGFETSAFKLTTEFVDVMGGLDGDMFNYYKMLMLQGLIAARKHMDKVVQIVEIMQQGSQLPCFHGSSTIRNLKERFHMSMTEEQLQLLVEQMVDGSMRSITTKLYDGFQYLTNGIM
Description: as §1, §2, §3, §4

Sequence of PI 3-kinase beta (P42338 2-1070): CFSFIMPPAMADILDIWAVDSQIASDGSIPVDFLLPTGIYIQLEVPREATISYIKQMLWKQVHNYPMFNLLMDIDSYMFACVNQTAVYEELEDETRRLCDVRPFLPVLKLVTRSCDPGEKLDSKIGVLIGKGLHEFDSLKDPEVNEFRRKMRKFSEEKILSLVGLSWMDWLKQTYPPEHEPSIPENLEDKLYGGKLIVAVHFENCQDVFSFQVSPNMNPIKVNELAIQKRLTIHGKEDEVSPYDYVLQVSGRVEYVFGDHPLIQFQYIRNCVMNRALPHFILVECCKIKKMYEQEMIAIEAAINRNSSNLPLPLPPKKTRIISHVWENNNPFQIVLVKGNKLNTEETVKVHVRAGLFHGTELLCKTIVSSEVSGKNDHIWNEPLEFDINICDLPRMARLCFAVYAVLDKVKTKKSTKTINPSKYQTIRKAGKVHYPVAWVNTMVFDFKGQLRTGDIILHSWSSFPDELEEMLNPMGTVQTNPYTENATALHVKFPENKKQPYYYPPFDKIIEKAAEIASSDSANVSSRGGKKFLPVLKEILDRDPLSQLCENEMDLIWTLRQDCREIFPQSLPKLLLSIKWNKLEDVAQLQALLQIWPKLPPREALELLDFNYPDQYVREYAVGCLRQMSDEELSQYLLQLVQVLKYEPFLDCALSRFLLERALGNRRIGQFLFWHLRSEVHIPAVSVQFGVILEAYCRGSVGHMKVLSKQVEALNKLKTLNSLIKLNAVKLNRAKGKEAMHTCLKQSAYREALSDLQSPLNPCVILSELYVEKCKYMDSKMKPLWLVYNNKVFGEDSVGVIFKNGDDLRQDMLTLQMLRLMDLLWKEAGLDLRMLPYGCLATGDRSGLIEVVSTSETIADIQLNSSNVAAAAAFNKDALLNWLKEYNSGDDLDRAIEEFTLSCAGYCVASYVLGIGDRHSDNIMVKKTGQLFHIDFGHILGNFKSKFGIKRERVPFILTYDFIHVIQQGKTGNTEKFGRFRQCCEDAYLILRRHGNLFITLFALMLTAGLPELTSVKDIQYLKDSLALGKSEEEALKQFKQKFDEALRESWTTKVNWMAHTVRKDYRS

Compound: Cc1ccc(S(=O)(=O)NCCC(C)(C)O)cc1-c1cncc(-c2cn(CCN3CCOCC3)nc2C)n1 [Example 10, N-(3-Hydroxy-3-methyl-butyl)-4-methyl-3-{6-[3-methyl-1-(2-morpholin-4-yl-ethyl)-1H-pyrazol-4-yl]-pyrazin-2-yl}-benzenesulfonamide]
- IC50 [1]: 8.5 µM
- IC50 [2]: > 10 µM
- IC50 [3]: > 10 µM

Compound: Cc1ccc(S(=O)(=O)NCC(C)(C)O)cc1-c1cncc(-c2cn(C)nc2C)n1 [Example 2, 3-[6-(1,3-Dimethyl-1H-pyrazol-4-yl)-pyrazin-2-yl]-N-(2-hydroxy-2-methyl-propyl)-4-methyl-benzenesulfonamide]
- IC50 [1]: 0.71 µM
- IC50 [2]: 3.45 µM
- IC50 [3]: > 9.78 µM

Compound: Cc1ncc(-c2cncc(-c3cc(S(=O)(=O)NCCCO)ccc3C)n2)s1 [Example 1, N-(3-Hydroxy-propyl)-4-methyl-3-[6-(2-methyl-thiazol-5-yl)-pyrazin-2-yl]-benzenesulfonamide]
- IC50 [1]: 6.16 µM
- IC50 [2]: 3.07 µM
- IC50 [3]: > 9.1 µM

Compound: Cc1ccc(S(=O)(=O)NCC2(C)COC2)cc1-c1cncc(-c2cn(C)nc2C)n1 [Example 4, Trans 3-[6-(1,3-Dimethyl-1H-pyrazol-4-yl)-pyrazin-2-yl]-4-methyl-N-(3-methyl-oxetan-3-ylmethyl)-benzenesulfonamide]
- IC50 [1]: 0.68 µM
- IC50 [2]: 4.3 µM
- IC50 [3]: > 10 µM

Compound: Cc1ccc(S(=O)(=O)NCCC(C)(C)O)cc1-c1cncc(-c2cnn(CCN3CCOCC3)c2)n1 [Example 9, N-(3-Hydroxy-3-methyl-butyl)-4-methyl-3-{6-[1-(2-morpholin-4-yl-ethyl)-1H-pyrazol-4-yl]-pyrazin-2-yl}-benzenesulfonamide]
- IC50 [1]: > 9.1 µM
- IC50 [2]: > 9.1 µM
- IC50 [3]: > 9.1 µM

Compound: Cc1ccc(S(=O)(=O)NCC(C)(C)CO)cc1-c1cncc(-c2cn(C)nc2C)n1 [Example 8, 3-[6-(1,3-Dimethyl-1H-pyrazol-4-yl)-pyrazin-2-yl]-N-(3-hydroxy-2,2-dimethyl-propyl)-4-methyl-benzenesulfonamide]
- IC50 [1]: 0.68 µM
- IC50 [2]: 4.4 µM
- IC50 [3]: > 9.55 µM

Compound: Cc1ncc(-c2cncc(-c3cc(S(=O)(=O)N[C@H]4CC[C@H](O)CC4)ccc3C)n2)s1 [Example 5, Trans N-(4-Hydroxycyclohexyl)-4-methyl-3-(6-(2-methylthiazol-5-yl)pyrazin-2-yl)benzenesulfonamide]
- IC50 [1]: 1.12 µM
- IC50 [2]: 1.81 µM
- IC50 [3]: > 9.1 µM

Compound: Cc1ccc(S(=O)(=O)N[C@H]2CC[C@H](O)CC2)cc1-c1cncc(-c2cccnc2)n1 [Example 11, Trans N-(4-Hydroxy-cyclohexyl)-4-methyl-3-(6-pyridin-3-yl-pyrazin-2-yl)-benzenesulfonamide]
- IC50 [1]: 3.93 µM
- IC50 [2]: 3.08 µM
- IC50 [3]: > 9.1 µM

Compound: Cc1ccc(S(=O)(=O)NCCC(C)(C)O)cc1-c1cncc(-c2cn(C)nc2C)n1 [Example 3, 3-[6-(1,3-Dimethyl-1H-pyrazol-4-yl)-pyrazin-2-yl]-N-(3-hydroxy-3-methyl-butyl)-4-methyl-benzenesulfonamide]
- IC50 [1]: 1.45 µM
- IC50 [2]: 5.3 µM
- IC50 [3]: > 9.55 µM
